The structures appear in SMILES notation.

As for `CCCCCCCCCCCCCCCCC1CCCCC1`, the melting point came to 33.6 °C.

In turn, `Sc1c(Cl)c(Cl)cc(Cl)c1Cl` registered a melting point of 105 to 107 °C.

Compound `Cc1cccc(OP(=O)(Oc2cccc(C)c2)Oc2cccc(C)c2)c1` gave a melting point of 25.5 °C.

With `CCOC(=O)C1=C(C)Nc2ccccc2S1`, the melting point stood at 143 °C.

The compound `Cc1cccc2ccc3ccccc3c12` displayed a melting point of 53.5 °C.

The compound `O=C1c2ccccc2-c2c(O)cccc21` yielded a melting point of 250 °C.

In turn, `O=S(=O)(O)CC(O)CN(CCO)CCO` (centres undefined) yielded a melting point of 189 to 192 °C.

`CC1=C(C)C(=O)OC1=O` had a melting point of 96 °C.

As to `CC1=C(CCO)SC2=Nc3nc(C)ncc3CN21`, the melting point stood at 229 °C.

Turning to `OC(CCl)C(O)CCl` (centres undefined), the melting point came to 126 °C.

As to `CNC(=N[N+](=O)[O-])NCc1cnc(Cl)s1`, the melting point turned out to be 177 °C.

With `CNc1ccccc1`, the melting point is -57 °C.

In turn, `CON=C(C(=O)Sc1nc2ccccc2s1)c1csc(N)n1` yielded a melting point of 126 to 130 °C.

The compound `C[C@@H](NC(=O)c1ccccc1)c1ccccc1` came in with a melting point of 123 to 125 °C.

Turning to `CCNc1nc(NC(C)C(C)C)nc(SC)n1` (centres undefined), the melting point is 65 °C.

In turn, `Nc1cccc(COc2ccccc2)c1` showed a melting point of 45 to 47 °C.

In turn, `CC(=O)Oc1c(-c2ccc(-c3[nH]c4cc([N+](=O)[O-])ccc4c3OC(C)=O)cc2)[nH]c2cc([N+](=O)[O-])ccc12` registered a melting point of 280 °C.

As to `O=C1C(c2ccccc2)=[N+]([O-])c2cc([N+](=O)[O-])c(/C=C/c3ccccc3)cc21`, the melting point worked out at 233 °C.

In the case of `CCCCCCC(C)CCCCCC`, the melting point is -37.2 °C.

`O=C(O)[C@@H]1CCCC[C@H]1C(=O)c1ccc(Cl)cc1` (relative stereo) displayed a melting point of 157 to 161 °C.

The compound `Fc1cc(CCl)c2c(c1)COCO2` returned a melting point of 78 to 80 °C.

`CC12CCC(C(=O)/C(=N\O)C1=O)C2(C)C` (centres undefined) returned a melting point of 109 °C.

As for `Brc1ccc2cccnc2c1`, the melting point was determined as 34 °C.

On to `FC1(F)C(F)(F)C(F)(F)C1(F)F`, for which the melting point is -40.1 °C.

The compound `Nc1cccc(C(=O)O)c1C(=O)O` had a melting point of 170 to 180 °C.

Consider `CCSCC(=O)O`, for which the melting point was -8.5 °C.

`CC1(C)C(=O)OC2=C(CCCC2=Cc2ccccc2)C1c1ccccc1` (centres undefined) gave a melting point of 155 to 157 °C.

Consider `Nc1ccccc1S(=O)(=O)c1ccccc1`, for which the melting point lay in the range of 118 to 122 °C.

In turn, `CC(=O)NC1C2CCC(C)(C1NC(C)=O)C2(C)C` (centres undefined) registered a melting point of 309 °C.

Consider `CC1=NN(c2ccc(C(=O)O)cc2)C(=O)C1`, for which the melting point is 284 to 288 °C.

For the compound `CCCC(O)C(=O)O` (centres undefined), the melting point came out at 34 °C.

The compound `Cc1cccc2c(O)c(C=C3C(=O)N(c4ccccc4)N=C3c3ccccc3)c(=O)[nH]c12` displayed a melting point of 113 °C.

In the case of `CCN(CC)CC(=O)Nc1c(C)cc(C)cc1C`, the melting point worked out at 44 °C.

Consider `N#CC1=C(N)Oc2c(Br)cc(Br)cc2C1C(C#N)C#N` (centres undefined), for which the melting point is 300 °C.

In turn, `COc1ccc(-n2c(SC)nc3nc(SC)n(C)c3c2=O)cc1` had a melting point of 213 to 214 °C.

`CCC1(c2cccc(O)c2)CCCCN(C)C1=O` (centres undefined) had a melting point of 172 to 176 °C.

`O=[N+]([O-])c1cccc(OCCBr)c1`: the melting point came to 39 °C.

In turn, `Oc1c(Cl)cc(Cl)cc1Br` returned a melting point of 68 °C.

As to `OCc1ccccn1`, the melting point was 5 °C.

The compound `Cc1cc(Br)c(O)c(Br)c1` came in with a melting point of 50 °C.

For `O=S1OCC2C(CO1)C1(Cl)C(Cl)=C(Cl)C2(Cl)C1(Cl)Cl` (centres undefined), the melting point was determined as 109 °C.

`COc1ccc(O)c(F)c1F` yielded a melting point of 105 °C.

As to `CC12Cc3nonc3CC1CCC1C2CCC2(C)C1CCC2(C)O` (centres undefined), the melting point was 152 °C.

Compound `N#Cc1ccccc1C(F)(F)F` gave a melting point of 18 °C.

The values above are taken from a melting point compilation (Tetko et al.).
